The compound `Cn1c(C#N)ccc1-c1ccc2c(c1F)C1(CC1)C(=O)N2` [Example 5, 5-(4′-fluoro-2′-oxospiro[cyclopropane-1,3′-indoline]-5′-yl)-1-methyl-1H-pyrrole-2-carbonitrile] yielded a melting point of 222.5 to 223.8 °C.
